Test [1] can be described thus: Binding affinity to C-terminal 6His-tagged Escherichia coli UTI89 FmlH (1 to 160 residues) expressed in Escherichia coli C600 expression system assessed as dissociation constant by biolayer interferometry assay.
The nature of test [2]: Inhibition of C-terminal 6His-tagged Escherichia coli UTI89 FmlH (1 to 160 residues) expressed in Escherichia coli C600 expression system using tetramethylbenzidine as substrate incubated for 1 hr by […]. A general note: In BLI a coated tip is dipped into the sample, and binding shifts an interference pattern.

For two compounds, Kd results are on record in ChEMBL document CHEMBL5137057, “Small Carbohydrate Derivatives as Potent Antibiofilm Agents” (J Med Chem, 2022).

In general, Kd refers to a measure of binding affinity in units of concentration.

Consider `O=C(O)C[C@H]1[C@@H](Oc2ccccc2[N+](=O)[O-])O[C@H](CO)[C@H](O)[C@@H]1O`, for which the Kd in test [1] worked out at 10.6 µM.
`O=C(O)C[C@H]1[C@@H](Oc2ccccc2-c2cccc(C(=O)O)c2)O[C@H](CO)[C@H](O)[C@@H]1O` gave a dissociation constant (Kd) in test [2] of 0.64 µM.
